Consider two compounds from publication PMC12974487, “Inhibition of FicD-mediated AMPylation and deAMPylation by isoprenoid diphosphates” (Proceedings of the National Academy of Sciences of the …, 2026).

Positions count from the first letter of the chain named.

Common to all, as to assay type: binding
For test [1], the target named is T1, FicD^L258D (Homo sapiens, UniProt Q9BVA6, L258D).
T1 construct: soluble ER luminal domain (residues 105 to 458) of wild-type human FicD and three mutants; 6xHis-Sumo (N, cleaved yes); made in house; host or cells: Rosetta(DE3) E. coli
T1 sequence (Q9BVA6 105-458 L258D): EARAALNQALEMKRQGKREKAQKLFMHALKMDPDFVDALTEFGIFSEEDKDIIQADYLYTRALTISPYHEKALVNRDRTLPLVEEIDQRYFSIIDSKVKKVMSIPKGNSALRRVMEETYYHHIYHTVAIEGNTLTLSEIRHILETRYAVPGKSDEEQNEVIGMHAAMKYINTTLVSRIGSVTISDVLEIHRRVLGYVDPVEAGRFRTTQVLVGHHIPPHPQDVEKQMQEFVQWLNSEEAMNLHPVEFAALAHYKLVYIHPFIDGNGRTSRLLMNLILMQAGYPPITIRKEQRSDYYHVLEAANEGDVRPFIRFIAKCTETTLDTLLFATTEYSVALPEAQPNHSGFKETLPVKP
Put plainly: MIDAS metabolite screen, FicD^L258D. Conditions: cutoff Q < 0.05 and |Log2 corrected fold change| > 2, metabolites 5 µM. The text has this:
To identify small-molecule metabolite interactions with FicD, we applied an unbiased high-throughput screening approach known as MIDAS ([44]). Given the high concentrations of protein required for MIDAS screening, we purified the soluble ER luminal domain (residues 105 to 458) of wild-type human FicD and three mutants FicD^E234G, FicD^L258D, and FicD^H363A for screening (Fig. 1A). These mutants were selected based on their well-established biochemical features ([23], [24], [31]). All three are predicted to enhance detection of protein–metabolite interactions (PMIs) relative to FicD^WT through increased affinity for nucleotide substrates (FicD^E234G), improved solubility (FicD^L258D), and loss of catalytic turnover (FicD^H363A) (Fig. 1A). To decrease the potential for nonspecific small-molecule binding, we ensured the purity of our FicD proteins (SI Appendix, Fig. S1 A and B). As reported by other investigators ([24], [31]), we observe an increase in elution volume of the FicD^L258D mutant, consistent with its monomerization (SI Appendix, Fig. S1C).
Out of the 602 naturally occurring human metabolites in the MIDAS library, we applied a significance cutoff (q value < 0.05) to identify 12 PMIs with a Log2 (corrected fold change) of >2 and two PMIs with a Log2 (corrected fold change) <-2 in the FicD^WT screen (Fig. 1B and SI Appendix, Table S2). Hits were additionally triaged based on detection of multiple adducts of the metabolite in a single dataset (FPP and […] in Fig. 1B) and identification of the same metabolites across three or more of the FicD construct screens (Fig. 1C). Three chemical classes passed this initial triage: adenosine nucleotides, isoprenoid diphosphates, and thyroid hormone intermediates (Fig. 1 B and C and SI Appendix, Tables S2–S5).
22°C. Induced cultures were then harvested by centrifugation at 8000G for 15 minutes at 4°C and […]
Bacterial pellets were resuspended in 30-50mL of 50mM Tris pH 7.4/150mM NaCl/10% glycerol with one Roche cOmplete EDTA-Free Protease inhibitor cocktail tablet (cat no. COEDTAF-RO).
Triton-X100 to a final concentration of 0.2%, Chicken-egg lysozyme to a final concentration of 0.4ug/mL, and 2-5uL of Millipore Benzonase Nuclease (cat no. 70664) were added to bacterial suspension prior to sonication at 40-50% amplitude for 1-3 minutes in pulses of 5 seconds on and 30 seconds off on ice with a Sonics VCX 750 Ultrasonicator. Bacterial lysate was then clarified by centrifugation at 30,000 x g for 30 minutes at 4°C.
Clarified lysate was rotated with Qiagen NiNTA agarose beads (cat no. 30210) for 1-2 hours at 4°C. The beads were then transferred to a 15mL conical vial, resuspended in 10-15mL wash buffer (50mM Tris pH 7.4/150mM NaCl/10% glycerol/0.2% Triton-X 100/10mM imidazole), and spun down at 1000G for 1 minute at 4°C, after which the supernatant was aspirated from the beads. This washing step was repeated 2-4 times to rinse bacterial lysate from the beads prior to on-column washing. The beads were then transferred to BioRad Econopac 20mL bed volume column (cat no.
7321010) and washed with 10-15mL of wash buffer (repeated at least three times), 10mL of ATP wash (50mM Tris pH 7.4/300mM KCl/10mM MgCl2/500uM ATP, repeated once), and finally with 10-15mL wash buffer without Triton-X 100 (repeated at least three times). Protein was eluted in 500μL-1mL elution buffer (50mM Tris pH 7.5/150mM NaCl/10% glycerol/0.5% CHAPS). […]

The target of another test is T2, FicD^E234G (Homo sapiens, UniProt Q9BVA6, E234G).
T2 construct: soluble ER luminal domain (residues 105 to 458) of wild-type human FicD and three mutants; 6xHis-Sumo (N, cleaved yes); made in house; host or cells: Rosetta(DE3) E. coli
T2 sequence (Q9BVA6 105-458 E234G): T1 sequence (Q9BVA6 105-458 L258D) with E130G, D154L
As to the kind of experiment: MIDAS metabolite screen, FicD^E234G. Conditions: cutoff Q < 0.05 and |Log2 corrected fold change| > 2, metabolites 5 µM.

In another test the target is T3, FicD^WT (Homo sapiens, UniProt Q9BVA6).
T3 construct: soluble ER luminal domain (residues 105 to 458) of wild-type human FicD; 6xHis-Sumo (N, cleaved yes); made in house; host or cells: Rosetta(DE3) E. coli
T3 sequence (Q9BVA6 105-458): T1 sequence (Q9BVA6 105-458 L258D) with D154L
Put plainly: MIDAS equilibrium dialysis/mass spectrometry metabolite screen, FicD^WT. The following applies: cutoff Q < 0.05 and |Log2 corrected fold change| > 2, metabolites 5 µM. For orientation: In equilibrium dialysis free small molecules cross a membrane that holds back macromolecules.

The target of test [2] is T1, FicD^L258D. Put plainly: Differential scanning fluorimetry (DSF) thermal shift with FicD^L258D. The protocol: Differential Scanning Fluorimetry
Thermal shift assays were performed in Biorad CfX384 Touch Real-Time PCR Detection System […]
Reactions contained 50mM HEPES pH 7.4, 200mM NaCl, 200mM KCl, 200uM DTT, 5X Invitrogen Sypro Orange (Cat no. S6650), 8-9μM protein, and indicated nucleotide, cofactor, or small molecule in a total volume of 20uL. For every experiment ‘no protein’ controls were also included with the same reaction conditions. All reactions were performed in technical triplicates. Sealed plates containing reaction mixes were centrifuged for 1-5 min at 1000 RPM prior to temperature scanning (FRET channel), which was performed from 6°C […]
DSF data was analyzed with traditional methods automated in a Python package (https://pypi.org/project/instawell/). Briefly, for each temperature, the RFU values of technical triplicates are averaged. For each timepoint, the background fluorescence was subtracted using the RFU values of the ‘no protein’ control. […]
calculated. The melting temperature (Tm) is defined as the first derivative peak value. Data

`Nc1ncnc2c1ncn2[C@H]1C[C@H](O)[C@@H](COP(=O)(O)OP(=O)(O)OP(=O)(O)O)O1` [dATP]: the “MIDAS protein-metabolite interaction (enrichment/depletion)” value at FicD^L258D [1] is reported as “did not pass the significance cutoff”; on FicD^E234G, “significantly enriched”; on FicD^WT it was “significantly enriched”. Besides, on FicD^L258D [2] (FicD^L258D, 5 mM MgCl2), the “maximal Tm shift at saturating ligand concentration” value is ~ 7 °C. Further, the concentration for a half-maximal effect (EC50) (commonly the concentration needed to bring the measured effect to its halfway point) at FicD^L258D [2] (FicD^L258D, 5 mM MgCl2, read-out: EC50 of DSF dose-response (ΔTm)) amounted to 530 µM. Besides, the “binding to FicD^L258D by DSF” value at FicD^L258D [2] (absence of MgCl2) was “did not bind”; on FicD^L258D [2] (presence of 5 mM MgCl2) it was “binding”.

With deoxyadenosine diphosphate [dADP], the “MIDAS protein-metabolite interaction (enrichment/depletion)” value at FicD^L258D [1], on FicD^E234G and at FicD^WT was “significantly enriched” throughout. Moreover, at FicD^L258D [2] (FicD^L258D, 5 mM MgCl2), the “maximal Tm shift at saturating ligand concentration” value was ~ 11 °C. Further, the “binding to FicD^L258D by DSF” value on FicD^L258D [2] (absence of MgCl2) is listed as “did not bind”; on FicD^L258D [2] (presence of 5 mM MgCl2), “binding”.
